Measurements published in patent US9469617B2, “Molecules having certain pesticidal utilities, and intermediates, compositions, and processes related thereto” (priority 2014, dated 2016).

Legend:
Type in all cases: in vivo
[1] = tested on: Beet Armyworm (BAW) (Spodoptera exigua); assay: Bioassay on Beet Armyworm (BAW), 128-well diet tray assay; conditions: 168 h, Table ABC, 50 μg/cm^2 on artificial diet, second instar larvae, five to seven days, 25° C., read-out: BAW % Control (or Mortality) rating
Protocol: (§1) Certain molecules disclosed in this document were tested against BAW and CL using procedures described in the following examples. In the reporting of the results, the “BAW & CL Rating Table” was used (See Table Section).
Bioassays on BAW were conducted using a 128-well diet tray assay. one to five second instar BAW larvae were placed in each well (3 mL) of the diet tray that had been previously filled with 1 mL of artificial diet to which 50 μg/cm^2 of the test compound (dissolved in 50 μL of 90:10 acetone-water mixture) had been applied (to each of eight wells) and then allowed to dry. Trays were covered with a clear self-adhesive cover, and held at 25° C., 14:10 light-dark for five to seven days. Percent mortality was recorded for the larvae in each well; activity in the eight wells was then averaged. The results are indicated in the tables entitled “Table ABC: Assay Results” and “Table ABCD: Assay Results” (See Table Section).

[2] = tested on: Cabbage Looper (CL) (Trichoplusia ni); assay: Bioassay on Cabbage Looper (CL), 128-well diet tray assay; conditions: 168 h, Table ABC, 50 μg/cm^2 on artificial diet, second instar larvae, five to seven days, 25° C., read-out: CL % Control (or Mortality) rating
Protocol: as §1
Bioassays on CL were conducted using a 128-well diet tray assay. One to five second instar CL larvae were placed in each well (3 mL) of the diet tray that had been previously filled with 1 mL of artificial diet to which 50 μg/cm^2 of the test compound (dissolved in 50 μL of 90:10 acetone-water mixture) had been applied (to each of eight wells) and then allowed to dry. Trays were covered with a clear self-adhesive cover, and held at 25° C., 14:10 light-dark for five to seven days. Percent mortality was recorded for the larvae in each well; activity in the eight wells was then averaged. The results are indicated in the table entitled “Table ABC: Assay Results” and “Table ABCD: Assay Results” (See Table Section).

[3] = tested on: Yellow Fever Mosquito (YFM) (Aedes aegypti); assay: Bioassay on Yellow Fever Mosquito (YFM) larvae, 96-well plate; conditions: Table ABC; about 1 day-old larvae, master plate 4000 ppm in DMSO diluted, scored on mortality after 3 days
Protocol: Certain molecules disclosed in this document were tested against YFM using procedures described in the following paragraph. In the reporting of the results, the “GPA & YFM Rating Table” was used (See Table Section).
Master plates containing 400 μg of a molecule dissolved in 100 μL of dimethyl sulfoxide (DMSO) (equivalent to a 4000 ppm solution) are used. A master plate of assembled molecules contains 15 μL per well. To this plate, 135 μL of a 90:10 water:acetone mixture is added to each well. A robot (Biomek® NXP Laboratory Automation Workstation) is programmed to dispense 15 μL aspirations from the master plate into an empty 96-well shallow plate (“daughter” plate). There are 6 reps (“daughter” plates) created per master. The created daughter plates are then immediately infested with YFM larvae.
The day before plates are to be treated, mosquito eggs are placed in Millipore water containing liver powder to begin hatching (4 g. into 400 mL). After the daughter plates are created using the robot, they are infested with 220 μL of the liver powder/larval mosquito mixture (about 1 day-old larvae). After plates are infested with mosquito larvae, a non-evaporative lid is used to cover the plate to reduce drying. Plates are held at room temperature for 3 days prior to grading. After 3 days, each well is observed and scored based on mortality.

| SMILES | mortality at 50 µg/cm2 [1] [%] | mortality at 50 µg/cm2 [2] [%] | YFM % Control (or Mortality) rating [3] |
| --- | --- | --- | --- |
| O=C(NC(=S)Nc1ccccc1C1CC1)NC1Cc2ccc(-c3ncn(-c4ccc(OC(F)(F)F)cc4)n3)cc2C1 (stereo not drawn) [F11, 1-[(2-Cyclopropylphenyl)carbamothioyl]-3-[5-[1-[4-(trifluoromethoxy)phenyl]-1,2,4-triazol-3-yl]indan-2-yl]urea] | 50 to 100 | 50 to 100 | A (80-100) |
| CC(C)c1ccccc1N1C(=O)CS/C1=N\C(=O)NC1Cc2ccc(-c3ncn(-c4ccc(OC(F)(F)F)cc4)n3)cc2C1 (stereo not drawn) [F16, (Z)-1-(3-(2-Isopropylphenyl)-4-oxothiazolidin-2-ylidene)-3-(5-(1-(4-(trifluoromethoxy)phenyl)-1H-1,2,4-triazol-3-yl)-2,3-dihydro-1H-inden-2-yl)urea] | 50 to 100 | 50 to 100 | A (80-100) |
| Cc1ccc(C(C)C)c(N2C(=O)CS/C2=N\C(=O)NC2CCc3cc(-c4ncn(-c5ccc(OC(F)(F)F)cc5)n4)ccc3C2)c1 (stereo not drawn) [F17, (Z)-1-(3-(2-isopropyl-5-methylphenyl)-4-oxothiazolidin-2-ylidene)-3-(6-(1-(4-(trifluoromethoxy)phenyl)-1H-1,2,4-triazol-3-yl)-1,2,3,4-tetrahydronaphthalen-2-yl)urea] | 50 to 100 | 50 to 100 | A (80-100) |
| Cc1cs/c(=N\C(=O)NC2Cc3ccc(-c4ncn(-c5ccc(OC(F)(F)F)cc5)n4)cc3C2)n1-c1ccccc1C(C)C (stereo not drawn) [FA1, (Z)-1-(3-(2-isopropylphenyl)-4-methylthiazol-2(3H)-ylidene)-3-(5-(1-(4-(trifluoromethoxy)phenyl)-1H-1,2,4-triazol-3-yl)-2,3-dihydro-1H-inden-2-yl)urea] | 50 to 100 | 50 to 100 | A (80-100) |
| CC(C)c1ccccc1N1/C(=N/C(=O)NC2Cc3ccc(-c4ncn(-c5ccc(OC(F)(F)F)cc5)n4)cc3C2)SCC1C (stereo not drawn) [FA3, (Z)-1-(3-(2-isopropylphenyl)-4-methylthiazolidin-2-ylidene)-3-(5-(1-(4-(trifluoromethoxy)phenyl)-1H-1,2,4-triazol-3-yl)-2,3-dihydro-1H-inden-2-yl)urea] | 50 to 100 | 0 | B (More than 0-Less than 80) |
| CC1CS/C(=N\C(=O)NC2Cc3ccc(-c4ncn(-c5ccc(OC(F)(F)F)cc5)n4)cc3C2)N(c2ccccc2C(C)C)C1 (stereo not drawn) [FA5, (Z)-1-(3-(2-Isopropylphenyl)-5-methyl-1,3-thiazinan-2-ylidene)-3-(5-(1-(4-(trifluoromethoxy)phenyl)-1H-1,2,4-triazol-3-yl)-2,3-dihydro-1H-inden-2-yl)urea] | 50 to 100 | 50 to 100 | A (80-100) |
| CC(C)c1ccccc1N1/C(=N/C(=O)NC2Cc3ccc(-c4ncn(-c5ccc(OC(F)(F)F)cc5)n4)cc3C2)SCCC1C (stereo not drawn) [FA6, (Z)-1-(3-(2-Isopropylphenyl)-4-methyl-1,3-thiazinan-2-ylidene)-3-(5-(1-(4-(trifluoromethoxy)phenyl)-1H-1,2,4-triazol-3-yl)-2,3-dihydro-1H-inden-2-yl)urea] | 50 to 100 | 50 to 100 | A (80-100) |
| COc1ccc(NC(=S)NC(=O)NC2Cc3ccc(-c4ncn(-c5ccc(OC(F)(F)F)cc5)n4)cc3C2)c(C)c1 (stereo not drawn) [P1] | 50 to 100 | 50 to 100 | A (80-100) |
| CC(C)c1cc(F)ccc1NC(=S)NC(=O)NC1Cc2ccc(-c3ncn(-c4ccc(OC(F)(F)F)cc4)n3)cc2C1 (stereo not drawn) [P2, 1-[(4-Fluoro-2-isopropyl-phenyl)carbamothioyl]-3-[5-[1-[4-(trifluoromethoxy)phenyl]-1,2,4-triazol-3-yl]indan-2-yl]urea] | 50 to 100 | 50 to 100 | A (80-100) |
| CC(C)c1ccc(Cl)cc1NC(=S)NC(=O)NC1Cc2ccc(-c3ncn(-c4ccc(OC(F)(F)F)cc4)n3)cc2C1 (stereo not drawn) [P3, 1-[(5-Chloro-2-isopropyl-phenyl)carbamothioyl]-3-[5-[1-[4-(trifluoromethoxy)phenyl]-1,2,4-triazol-3-yl]indan-2-yl]urea] | 50 to 100 | 50 to 100 | A (80-100) |
| COc1ccc(C(C)C)c(NC(=S)NC(=O)NC2Cc3ccc(-c4ncn(-c5ccc(OC(F)(F)F)cc5)n4)cc3C2)c1 (stereo not drawn) [P4, 1-[(2-Isopropyl-5-methoxy-phenyl)carbamothioyl]-3-[5-[1-[4-(trifluoromethoxy)phenyl]-1,2,4-triazol-3-yl]indan-2-yl]urea] | 50 to 100 | 50 to 100 | A (80-100) |
| Cc1ccc(NC(=S)NC(=O)NC2Cc3ccc(-c4ncn(-c5ccc(OC(F)(F)F)cc5)n4)cc3C2)c(C(C)C)c1 (stereo not drawn) [P5, 1-[(2-Isopropyl-4-methyl-phenyl)carbamothioyl]-3-[5-[1-[4-(trifluoromethoxy)phenyl]-1,2,4-triazol-3-yl]indan-2-yl]urea] | 50 to 100 | 50 to 100 | A (80-100) |
| COc1ccc(N2C(=O)CS/C2=N\C(=O)NC2Cc3ccc(-c4ncn(-c5ccc(OC(F)(F)F)cc5)n4)cc3C2)c(C)c1 (stereo not drawn) [P6, (Z)-1-(3-(4-methoxy-2-methylphenyl)-4-oxothiazolidin-2-ylidene)-3-(5-(1-(4-(trifluoromethoxy)phenyl)-1H-1,2,4-triazol-3-yl)-2,3-dihydro-1H-inden-2-yl)urea] | 50 to 100 | 50 to 100 | A (80-100) |
| Cc1ccc(N2C(=O)CS/C2=N\C(=O)NC2Cc3ccc(-c4ncn(-c5ccc(OC(F)(F)F)cc5)n4)cc3C2)c(C(C)C)c1 (stereo not drawn) [P7, (Z)-1-(3-(2-Isopropyl-4-methylphenyl)-4-oxothiazolidin-2-ylidene)-3-(5-(1-(4-(trifluoromethoxy)phenyl)-1H-1,2,4-triazol-3-yl)-2,3-dihydro-1H-inden-2-yl)urea] | 50 to 100 | 50 to 100 | A (80-100) |
| CC(C)c1ccc(Cl)cc1N1C(=O)CS/C1=N\C(=O)NC1Cc2ccc(-c3ncn(-c4ccc(OC(F)(F)F)cc4)n3)cc2C1 (stereo not drawn) [P8, (Z)-1-(3-(5-Chloro-2-isopropylphenyl)-4-oxothiazolidin-2-ylidene)-3-(5-(1-(4-(trifluoromethoxy)phenyl)-1H-1,2,4-triazol-3-yl)-2,3-dihydro-1H-inden-2-yl)urea] | 50 to 100 | 50 to 100 | A (80-100) |
| COc1ccc(C(C)C)c(N2C(=O)CS/C2=N\C(=O)NC2Cc3ccc(-c4ncn(-c5ccc(OC(F)(F)F)cc5)n4)cc3C2)c1 (stereo not drawn) [P9, (Z)-1-(3-(2-Isopropyl-5-methoxyphenyl)-4-oxothiazolidin-2-ylidene)-3-(5-(1-(4-(trifluoromethoxy)phenyl)-1H-1,2,4-triazol-3-yl)-2,3-dihydro-1H-inden-2-yl)urea] | 50 to 100 | 50 to 100 | A (80-100) |
| CC(C)c1cc(F)ccc1N1C(=O)CS/C1=N\C(=O)NC1Cc2ccc(-c3ncn(-c4ccc(OC(F)(F)F)cc4)n3)cc2C1 (stereo not drawn) [P10, (Z)-1-(3-(4-Fluoro-2-isopropylphenyl)-4-oxothiazolidin-2-ylidene)-3-(5-(1-(4-(trifluoromethoxy)phenyl)-1H-1,2,4-triazol-3-yl)-2,3-dihydro-1H-inden-2-yl)urea] | 50 to 100 | 50 to 100 | A (80-100) |
